Measured values published in article PMC6116705, “Design, synthesis, in vitro antiproliferative activity and apoptosis-inducing studies of 1-(3′,4′,5′-trimethoxyphenyl)-3-(2′-alkoxycarbonylindolyl)-2-propen-1-one derivatives obtained by a molecular hybridisation approach” (Journal of Enzyme Inhibition and Medicinal Chemistry, 2018).
Like-named read-outs stand apart in the source and are kept apart here.

Experiments:
[1] = test system: human breast adenocarcinoma (MCF-7) cells; assay: Antiproliferative assay, cell counting (Coulter Counter), MCF-7; type: cell-based; details: read-out: IC50, inhibition of proliferation
Experimental: (§1) Human cervix carcinoma (HeLa), human colon carcinoma (HT29), human breast carcinoma (MCF-7) and human lymphoma (HL-60) cells (3–5 × 10^4 cells) and a serial (five-fold) dilution of the test compounds were added to a 96-well microtiter plate. The cells were incubated for 72–96 h (depending on the tumor cell line) at 37 °C in a humidified 5% CO2 atmosphere. At the end of the incubation period, the cells were counted in a Coulter Counter (Coulter Electronics Ltd, Harpenden Herts, UK). […] The IC50 values represent the average (±standard deviation) of at least two to four independent experiments.

[2] = test system: tubulin (colchicine site); assay: Inhibition of [3H]colchicine binding to tubulin; parameters: species or system bovine; details: tubulin 1 µM, [3H]colchicine 5 µM, compound 5 µM
Experimental: (§2) To evaluate the effect of the compounds on tubulin assembly in vitro[40], varying concentrations of compounds were preincubated with 10 μM bovine brain tubulin in 0.8M monosodium glutamate (pH adjusted to 6.6 with HCl in a 2.0M stock solution) at 30 °C and then cooled to 0 °C. After addition of 0.4 mM GTP, the mixtures were transferred to 0 °C cuvettes in a recording spectrophotometer and warmed to 30 °C. Tubulin assembly was followed turbidimetrically at 350 nm. […] The capacity of the test compounds to inhibit colchicine binding to tubulin was measured as described. The reaction mixtures contained 1 μM tubulin, 5 μM [^3H]colchicine and 5 μM test compound.

[3] = test system: human cervix carcinoma (HeLa) cells; assay: Antiproliferative assay, cell counting (Coulter Counter), HeLa; type: cell-based; details: read-out: IC50, inhibition of proliferation
Experimental: as §1

[4] = test system: human promyelocytic leukemia (HL-60) cells; assay: Antiproliferative assay, cell counting (Coulter Counter), HL-60; type: cell-based; details: read-out: IC50, inhibition of proliferation
Experimental: as §1

[5] = test system: human colon adenocarcinoma (HT29) cells; assay: Antiproliferative assay, cell counting (Coulter Counter), HT29; type: cell-based; details: read-out: IC50, inhibition of proliferation
Experimental: as §1

bovine brain tubulin = assay: Inhibition of tubulin polymerisation (turbidimetric tubulin assembly); type: biochemical; details: tubulin 10 µM, 20 min at 30 °C; read-out: Tubulin assembly IC50±SD
Experimental: as §2

[6] = test system: U251 glioblastoma cancer cell line; parameters: method as in PMID 27343855; details: read-out: IC50, antiproliferative activity; cited from earlier work
[7] = Homo sapiens, MCF7, MCF-7, 72–96 h
[8] = Homo sapiens, HT-29, HT29, 72–96 h
[9] = Homo sapiens, reference compounds in nM
[10] = Homo sapiens, HL-60, reference compounds in nM

Compound | IC50 [1, 7] [nM] | IC50 ([3]; Homo sapiens, 72–96 h) [nM] | IC50 ([4]; Homo sapiens, HL-60, 72–96 h) [nM] | IC50 [5, 8] [nM] | melting point [°C] | also measured
COC(=O)c1[nH]c2ccc(OC)cc2c1/C=C/C(=O)c1cc(OC)c(OC)c(OC)c1 [Compound 9c, (E)-Methyl 5-methoxy-3-(3-oxo-3-(3,4,5-trimethoxyphenyl)prop-1-en-1-yl)-1H-indole-2-carboxylate] | 590 | 2400 ± 600 | 27000 ± 1000 | 1000 ± 700 |  | Colchicine binding % ±SD (inhibition) [2]: 5.3 ± 4%; IC50 (bovine brain tubulin): > 20 µM
COc1ccc2[nH]c(C)c(/C=C/C(=O)c3cc(OC)c(OC)c(OC)c3)c2c1 [compound 3] |  |  |  |  |  | IC50 [6]: > 10 µM
CCn1c(C(=O)OC)c(/C=C/C(=O)c2cc(OC)c(OC)c(OC)c2)c2ccc(OC)cc21 [Compound 9n, (E)-Methyl 1-ethyl-6-methoxy-3-(3-oxo-3-(3,4,5-trimethoxyphenyl)prop-1-en-1-yl)-1H-indole-2-carboxylate] | 36000 ± 23000 | 24000 ± 15000 | 47000 ± 11000 | 19000 ± 9000 | 157 to 158 | 
COC(=O)c1c(/C=C/C(=O)c2cc(OC)c(OC)c(OC)c2)c2ccccc2n1C [Compound 9g, (E)-Methyl 1-methyl-3-(3-oxo-3-(3,4,5-trimethoxyphenyl)prop-1-en-1-yl)-1H-indole-2-carboxylate] | 6700 ± 3000 | 69000 ± 12000 | 67000 ± 46000 | 10000 ± 4000 | 147 to 149 | 
CCOC(=O)c1c(/C=C/C(=O)c2cc(OC)c(OC)c(OC)c2)c2ccccc2n1C [Compound 9h, (E)-Ethyl 1-methyl-3-(3-oxo-3-(3,4,5-trimethoxyphenyl)prop-1-en-1-yl)-1H-indole-2-carboxylate] | 8300 ± 2300 | 41000 ± 11000 | 58000 ± 40000 | 5000 ± 1400 | 138 to 140 | 
CCn1c(C(=O)OC)c(/C=C/C(=O)c2cc(OC)c(OC)c(OC)c2)c2cc(OC)ccc21 [Compound 9l, (E)-Methyl 1-ethyl-5-methoxy-3-(3-oxo-3-(3,4,5-trimethoxyphenyl)prop-1-en-1-yl)-1H-indole-2-carboxylate] | 93000 ± 1000 | 6800 ± 2600 | 26000 ± 15000 | 10000 ± 6000 | 141 to 142 | 
CCOC(=O)c1c(/C=C/C(=O)c2cc(OC)c(OC)c(OC)c2)c2ccccc2n1Cc1ccccc1 [Compound 9p, (E)-Ethyl 1-benzyl-3-(3-oxo-3-(3,4,5-trimethoxyphenyl)prop-1-en-1-yl)-1H-indole-2-carboxylate] | 50000 ± 4000 | 61000 ± 41000 | 9000 ± 5100 | 9200 ± 4700 | 128 to 130 | 
CCOC(=O)c1[nH]c2ccccc2c1/C=C/C(=O)c1cc(OC)c(OC)c(OC)c1 [Compound 9b, (E)-Ethyl 3-(3-oxo-3-(3,4,5-trimethoxyphenyl)prop-1-en-1-yl)-1H-indole-2-carboxylate] | 1800 ± 1500 | 2100 ± 800 |  | 440 ± 330 |  | 
COC(=O)c1c(/C=C/C(=O)c2cc(OC)c(OC)c(OC)c2)c2cc(OC)ccc2n1Cc1ccccc1 [Compound 9q, (E)-Methyl 1-benzyl-5-methoxy-3-(3-oxo-3-(3,4,5-trimethoxyphenyl)prop-1-en-1-yl)-1H-indole-2-carboxylate] | 48000 ± 8000 | 15000 ± 7000 | 39000 ± 27000 | 18000 ± 10000 | 170 to 171 | 
CCn1c(C(=O)OC)c(/C=C/C(=O)c2cc(OC)c(OC)c(OC)c2)c2ccccc21 [Compound 9k, (E)-Methyl 1-ethyl-3-(3-oxo-3-(3,4,5-trimethoxyphenyl)prop-1-en-1-yl)-1H-indole-2-carboxylate] | 11000 ± 10000 | 9400 ± 3100 | 37000 ± 1000 | 6700 ± 1200 | 115 to 117 | 
COc1ccc2c(/C=C/C(=O)c3cc(OC)c(OC)c(OC)c3)c[nH]c2c1 [4a, reference compound] |  |  |  |  |  | IC50 ([1]; Homo sapiens, MCF7, MCF-7, reference compounds in nM): 49 ± 4 nM; IC50 [3, 9]: 81 ± 2 nM; IC50 [4, 10]: 23 ± 1 nM; IC50 ([5]; Homo sapiens, HT-29, HT29, reference compounds in nM): 60 ± 3 nM
CCOC(=O)c1c(/C=C/C(=O)c2cc(OC)c(OC)c(OC)c2)c2cc(OC)ccc2n1CC [Compound 9m, (E)-Ethyl 1-ethyl-5-methoxy-3-(3-oxo-3-(3,4,5-trimethoxyphenyl)prop-1-en-1-yl)-1H-indole-2-carboxylate] | 26000 ± 4000 | 24000 ± 2000 | 19000 ± 10000 | 14000 ± 6000 | 160 to 161 | 
COC(=O)c1[nH]c2ccccc2c1/C=C/C(=O)c1cc(OC)c(OC)c(OC)c1 [Compound 9a, (E)-Methyl 3-(3-oxo-3-(3,4,5-trimethoxyphenyl)prop-1-en-1-yl)-1H-indole-2-carboxylate] | 1100 ± 400 | 2000 ± 1000 | 4400 | 7300 ± 1200 |  | 
COC(=O)c1c(/C=C/C(=O)c2cc(OC)c(OC)c(OC)c2)c2ccc(OC)cc2n1C [Compound 9j, (E)-Methyl 6-methoxy-1-methyl-3-(3-oxo-3-(3,4,5-trimethoxyphenyl)prop-1-en-1-yl)-1H-indole-2-carboxylate] | 11000 ± 4000 | ≥ 100000 | 14000 ± 10000 | 31000 ± 22000 | 135 to 136 | 
COC(=O)c1c(/C=C/C(=O)c2cc(OC)c(OC)c(OC)c2)c2ccccc2n1Cc1ccccc1 [Compound 9o, (E)-Methyl 1-benzyl-3-(3-oxo-3-(3,4,5-trimethoxyphenyl)prop-1-en-1-yl)-1H-indole-2-carboxylate] | 71000 ± 18000 | 8200 ± 1500 | 41000 ± 25000 | 11000 ± 6000 | 166 to 168 | 
COc1ccc(/C=C\c2cc(OC)c(OC)c(OC)c2)cc1O [CA-4, combretastatin A-4, reference compound] |  |  |  |  |  | Colchicine binding % ±SD (inhibition) [2]: 98 ± 0.9%; IC50 [3, 9]: 4 ± 1 nM; IC50 [4, 10]: 1 ± 0.2 nM; IC50 (bovine brain tubulin): […]
COC(=O)c1c(/C=C/C(=O)c2cc(OC)c(OC)c(OC)c2)c2cc(OC)ccc2n1C [Compound 9i, (E)-Methyl 5-methoxy-1-methyl-3-(3-oxo-3-(3,4,5-trimethoxyphenyl)prop-1-en-1-yl)-1H-indole-2-carboxylate] | 2700 ± 900 | 25000 ± 3000 | 28000 ± 3000 | 22000 ± 1000 | 150 to 151 | 
(E)-Methyl 1-benzyl-6-methoxy-3-(3-oxo-3-(3,4,5-trimethoxyphenyl)prop-1-en-1-yl)-1H-indole-2-carboxylate [Compound 9r] |  |  |  |  |  | IC50 ([1]; MCF-7, 72–96 h): 28000 ± 3000 nM; IC50 ([3]; 72–96 h): 26000 ± 4000 nM; IC50 ([4]; HL-60, 72–96 h): 32000 ± 3000 nM; IC50 ([5]; HT29, 72–96 h): 27000 ± 2000 nM
